Results from PubChem BioAssay (NCI).
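Tested at 5 concentrations; 48 h exposure; 96-well plates; endpoints linearly interpolated, else capped at highest concentration. TGI denotes the concentration required for complete inhibition of growth.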

Tests used:
Experiment in all cases: NCI tumour cell line growth inhibition, 48 h
[1] = tested on: OVCAR-5 ovarian
[2] = tested on: NCI/ADR-RES ovarian
[3] = tested on: SF-295 CNS
[4] = tested on: U251 CNS
[5] = tested on: RPMI-8226 leukemia
[6] = tested on: NCI-H23 lung
[7] = tested on: DU-145 prostate
[8] = tested on: HCT-116 colon
[9] = tested on: 786-0 renal
[10] = tested on: COLO 205 colon
[11] = tested on: MDA-N
[12] = tested on: NCI-H460 lung
[13] = tested on: SNB-75 CNS
[14] = tested on: RXF 393 renal
[15] = tested on: SF-268 CNS
[16] = tested on: EKVX NSCLC
[17] = tested on: SK-OV-3 ovarian
[18] = tested on: K-562 leukemia
[19] = tested on: NCI-H522 lung
[20] = tested on: TK-10 renal
[21] = tested on: MOLT-4 leukemia
[22] = tested on: ACHN renal
[23] = tested on: SK-MEL-28 melanoma
[24] = tested on: HT29 colon
[25] = tested on: SK-MEL-5 melanoma
[26] = tested on: HOP-62 NSCLC
[27] = tested on: SN12C renal
[28] = tested on: NCI-H226 lung
[29] = tested on: A549 NSCLC
[30] = tested on: OVCAR-3 ovarian
[31] = tested on: PC-3 prostate
[32] = tested on: KM12 colon
[33] = tested on: SF-539 CNS
[34] = tested on: UACC-62 melanoma
[35] = tested on: CAKI-1 renal
[36] = tested on: HCT-15 colon
[37] = tested on: OVCAR-4 ovarian
[38] = tested on: A498 renal
[39] = tested on: HL-60(TB) leukemia
[40] = tested on: UACC-257 melanoma
[41] = tested on: T-47D breast
[42] = tested on: SW-620 colon
[43] = tested on: IGROV1 ovarian
[44] = tested on: BT-549 breast
[45] = tested on: LOX IMVI melanoma
[46] = tested on: MDA-MB-435
[47] = tested on: SK-MEL-2 melanoma
[48] = tested on: MCF7 breast
[49] = tested on: CCRF-CEM leukemia
[50] = tested on: SNB-19 CNS
[51] = tested on: OVCAR-8 ovarian
[52] = tested on: MDA-MB-231 breast
[53] = tested on: M14 melanoma
[54] = tested on: HS 578T breast
[55] = tested on: HOP-92 NSCLC
[56] = tested on: HCC-2998 colon
[57] = tested on: UO-31 renal

SMILES: CCOP(=O)(/C=C\n1cc(C)c(=O)[nH]c1=O)OCC
- TGI [1]: > 100 µM
- TGI [2]: > 100 µM
- TGI [3]: > 100 µM
- TGI [4]: > 100 µM
- TGI [5]: > 100 µM
- TGI [6]: > 100 µM
- TGI [7]: > 100 µM
- TGI [8]: > 100 µM
- TGI [9]: > 100 µM
- TGI [10]: > 100 µM
- TGI [11]: > 100 µM
- TGI [12]: > 100 µM
- TGI [13]: > 100 µM
- TGI [14]: > 100 µM
- TGI [15]: > 100 µM
- TGI [16]: > 100 µM
- TGI [17]: > 100 µM
- TGI [18]: > 100 µM
- TGI [19]: > 100 µM
- TGI [20]: > 100 µM
- TGI [21]: > 100 µM
- TGI [22]: > 100 µM
- TGI [23]: > 100 µM
- TGI [24]: > 100 µM
- TGI [25]: > 100 µM
- TGI [26]: > 100 µM
- TGI [27]: > 100 µM
- TGI [28]: > 100 µM
- TGI [29]: > 100 µM
- TGI [30]: > 100 µM
- TGI [31]: > 100 µM
- TGI [32]: > 100 µM
- TGI [33]: > 100 µM
- TGI [34]: > 100 µM
- TGI [35]: > 100 µM
- TGI [36]: > 100 µM
- TGI [37]: > 100 µM
- TGI [38]: > 100 µM
- TGI [39]: > 100 µM
- TGI [40]: > 100 µM
- TGI [41]: > 100 µM
- TGI [42]: > 100 µM
- TGI [43]: > 100 µM
- TGI [44]: > 100 µM
- TGI [45]: > 100 µM
- TGI [46]: > 100 µM
- TGI [47]: > 100 µM
- TGI [48]: > 100 µM
- TGI [49]: > 100 µM
- TGI [50]: > 100 µM
- TGI [51]: > 100 µM
- TGI [52]: > 100 µM
- TGI [53]: > 100 µM

SMILES: CC(=C(c1ccccc1)c1ccccc1)N1C(=O)CC(=O)N1C
- TGI [1]: > 100 µM
- TGI [2]: > 100 µM
- TGI [3]: > 100 µM
- TGI [4]: > 100 µM
- TGI [5]: > 100 µM
- TGI [6]: > 100 µM
- TGI [7]: > 100 µM
- TGI [8]: > 100 µM
- TGI [10]: > 100 µM
- TGI [11]: > 100 µM
- TGI [12]: > 100 µM
- TGI [13]: > 100 µM
- TGI [14]: 61.6 µM
- TGI [15]: > 100 µM
- TGI [16]: > 100 µM
- TGI [17]: > 100 µM
- TGI [18]: > 100 µM
- TGI [20]: > 100 µM
- TGI [21]: 76.3 µM
- TGI [54]: 55.4 µM
- TGI [22]: > 100 µM
- TGI [23]: > 100 µM
- TGI [55]: > 100 µM
- TGI [24]: > 100 µM
- TGI [25]: > 100 µM
- TGI [26]: > 100 µM
- TGI [27]: > 100 µM
- TGI [28]: > 100 µM
- TGI [29]: > 100 µM
- TGI [30]: > 100 µM
- TGI [31]: > 100 µM
- TGI [32]: > 100 µM
- TGI [33]: > 100 µM
- TGI [34]: 83.6 µM
- TGI [35]: 64.8 µM
- TGI [37]: 79.5 µM
- TGI [40]: > 100 µM
- TGI [41]: > 100 µM
- TGI [42]: > 100 µM
- TGI [43]: 39 µM
- TGI [56]: > 100 µM
- TGI [57]: 31.5 µM
- TGI [44]: > 100 µM
- TGI [45]: 31.2 µM
- TGI [46]: > 100 µM
- TGI [47]: > 100 µM
- TGI [48]: > 100 µM
- TGI [49]: 78.2 µM
- TGI [50]: > 100 µM
- TGI [51]: > 100 µM
- TGI [53]: > 100 µM
